IC50 data for nine compounds are collected here from patent US12371454B2, “Cyclic peptide compound having Kras inhibitory action” (priority 2019, dated 2025).

Starred links: 1 amine or outer side, 2 acyl side, 3 side chain; linkers in the order of their positions; H or OH if unused. Positions of bridges follow the written chain, without caps; N, C: chain ends. Non-standard residues stand in square brackets, D forms with d. Residues, ends and D or L forms follow the SMILES beside them. *: point of attachment. hPhe(3,5-F2-4-CF3) = N[C@@H](CCc1cc(F)c(C(F)(F)F)c(F)c1)C(=O)O; hPhe(3-Cl-4-CF3) = N[C@@H](CCc1ccc(C(F)(F)F)c(Cl)c1)C(=O)O; hPhe(3-F,4-CF3) = N[C@@H](CCc1ccc(C(F)(F)F)c(F)c1)C(=O)O; NMePhe(4-CF3) = CN[C@@H](Cc1ccc(C(F)(F)F)cc1)C(=O)O; hPhe(4-CF3) = N[C@@H](CCc1ccc(C(F)(F)F)cc1)C(=O)O; NMePhe(4-Cl) = CN[C@@H](Cc1ccc(Cl)cc1)C(=O)O; NMePhe(2-OMe) = CN[C@@H](Cc1ccccc1OC)C(=O)O; NMedβ3hAla = C[C@H](CC(=O)[*:2])N(C)[*:1]; Oic = O=C(O)[C@@H]1C[C@@H]2CCCC[C@@H]2N1; NMeGly(cPent) = CN[C@H](C(=O)O)C1CCCC1; Phe(3-I) = N[C@@H](Cc1cccc(I)c1)C(=O)O; Pro(4,4-F2) = O=C(O)[C@@H]1CC(F)(F)CN1; NMeCha = CN[C@@H](CC1CCCCC1)C(=O)O; NMeChg = CN[C@H](C(=O)O)C1CCCCC1; hPhe = N[C@@H](CCc1ccccc1)C(=O)O; NMeD = CN[C@@H](CC(=O)O)C(=O)O; NMeL = CN[C@@H](CC(C)C)C(=O)O; NMeV = CN[C@H](C(=O)O)C(C)C; d(β3hA) = C[C@@H](N)CC(=O)O; dIva = CC[C@@](C)(N)C(=O)O; dPip = O=C(O)[C@H]1CCCCN1; NMeA = CN[C@@H](C)C(=O)O; Nle = CCCC[C@H](N)C(=O)O; Piperidide = C1CCN(*)CC1; Ac5c = NC1(C(=O)O)CCCC1; Aze = O=C(O)[C@@H]1CCN1; Ac3c = NC1(C(=O)O)CC1; Sar = CNCC(=O)O

The term IC50 denotes the point on the concentration scale where inhibition reaches its midpoint.

The first test deals with T1, Kras and SOS1 (biotin-tagged human Kras loaded with GDP, His-tagged human SOS1) (Homo sapiens, UniProt P01116, G12D).
T1 construct: made in house; host or cells: E. coli (stated for Kras only)
T1 sequence (P01116 1-188 isoform P01116-2 G12D): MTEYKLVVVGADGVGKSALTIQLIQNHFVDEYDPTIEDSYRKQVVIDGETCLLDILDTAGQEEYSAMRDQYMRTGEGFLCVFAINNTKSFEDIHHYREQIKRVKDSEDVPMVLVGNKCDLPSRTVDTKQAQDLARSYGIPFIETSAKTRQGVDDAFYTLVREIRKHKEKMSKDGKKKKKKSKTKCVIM
The experiment in a line: Protein-protein interaction inhibition between Kras and SOS1 (KrasGl2D-SOS PPI) using AlphaScreen. Type of test: binding.
Settings: not given
In short, it runs like this: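 Kras was produced in E. coli, purified, then loaded with GDP. It was paired via streptavidin acceptor beads with His-SOS1 held on nickel donor beads, and proximity signal at 520-620 nm was read after 680 nm illumination.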
Background: Bead proximity is the source of the signal in Alpha formats.
In turn, `CC[C@H](C)[C@@H]1NC(=O)[C@H](CC(C)C)N(C)C(=O)C[C@@H](C(=O)N2CCCCC2)N(C)C(=O)[C@H](C2CCCCC2)N(C)C(=O)C2(CCCC2)NC(=O)[C@@H]2C[C@@H]3CCCC[C@@H]3N2C(=O)[C@H](CCc2ccc(C(F)(F)F)c(Cl)c2)NC(=O)CN(C)C(=O)[C@H](CC2CCCCC2)N(C)C(=O)CN(C)C(=O)CN(C)C1=O` [Compound 297] ([NMeL]I[Sar][Sar][NMeCha][Sar][hPhe(3-Cl-4-CF3)][Oic][Ac5c][NMeChg][NMeD]-Piperidide; lactam N-11) displayed an IC50 of 49 nM.

Still in this test, the particulars now being: AlphaScreen; biotin-tagged human Kras loaded with GDP, His-tagged human SOS1; read-out: KRAS G12D-SOS PPI IC50.
Take `CC[C@H](C)[C@@H]1NC(=O)[C@H](CC(C)C)N(C)C(=O)C[C@@H](C)NC(=O)[C@H](CC(C)C)N(C)C(=O)C2(CCCC2)NC(=O)[C@@H]2CCCN2C(=O)[C@H](CCc2ccc(C(F)(F)F)cc2)NC(=O)CN(C)C(=O)[C@H](Cc2ccc(Cl)cc2)N(C)C(=O)CN(C)C(=O)CN(C)C1=O` [Compound 258] (cyclo([Ac5c][NMeL][d(β3hA)][NMeL]I[Sar][Sar][NMePhe(4-Cl)][Sar][hPhe(4-CF3)]P)): the IC50 was found to be 36 nM.

In the case of `CCCC[C@@H]1NC(=O)[C@H](Cc2cccc(I)c2)NC(=O)CN(C)C(=O)[C@H](Cc2ccc(Cl)cc2)N(C)C(=O)CN(C)C(=O)CN(C)C(=O)[C@H]([C@@H](C)CC)NC(=O)[C@H](CC(C)C)N(C)C(=O)C[C@@H](C(=O)N2CCCCC2)N(C)C(=O)[C@H](CC(C)C)NC(=O)[C@H](Cc2ccccc2OC)N(C)C1=O` [Compound 259] ([NMeL]I[Sar][Sar][NMePhe(4-Cl)][Sar][Phe(3-I)][Nle][NMePhe(2-OMe)]L[NMeD]-Piperidide; lactam N-11), the IC50 is 21 nM.

On to `CC[C@H](C)[C@@H]1NC(=O)[C@H](CC(C)C)N(C)C(=O)C[C@@H](C(=O)N2CCCCC2)N(C)C(=O)[C@H](C(C)C)N(C)C(=O)C2(CCCC2)NC(=O)[C@@H]2CCCN2C(=O)[C@H](CCc2ccccc2)NC(=O)CN(C)C(=O)[C@H](CC2CCCCC2)N(C)C(=O)CN(C)C(=O)CN(C)C1=O` [Compound 265] ([NMeL]I[Sar][Sar][NMeCha][Sar][hPhe]P[Ac5c][NMeV][NMeD]-Piperidide; lactam N-11), for which the IC50 came out at 280 nM.

`CC[C@H](C)[C@@H]1NC(=O)[C@H](C)N(C)C(=O)C[C@@H](C(=O)N2CCCCC2)N(C)C(=O)[C@H](C(C)C)N(C)C(=O)C2(CCCC2)NC(=O)[C@@H]2CCCN2C(=O)[C@H](CCc2ccc(C(F)(F)F)c(F)c2)NC(=O)CN(C)C(=O)[C@H](CC2CCCCC2)N(C)C(=O)CN(C)C(=O)CN(C)C1=O` [Compound 266] ([NMeA]I[Sar][Sar][NMeCha][Sar][hPhe(3-F,4-CF3)]P[Ac5c][NMeV][NMeD]-Piperidide; lactam N-11): the IC50 amounted to 4.6 nM.

Regarding `CC[C@H](C)[C@@H]1NC(=O)[C@H](C)N(C)C(=O)C[C@@H](C)NC(=O)[C@H](C(C)C)N(C)C(=O)C2(CCCC2)NC(=O)[C@@H]2CCCN2C(=O)[C@H](CCc2ccc(C(F)(F)F)c(Cl)c2)NC(=O)[C@H]2CCCCN2C(=O)[C@H](CC2CCCCC2)N(C)C(=O)[C@@H]2CCN2C(=O)CN(C)C1=O` [Compound 267] (cyclo([Ac5c][NMeV][d(β3hA)][NMeA]I[Sar][Aze][NMeCha][dPip][hPhe(3-Cl-4-CF3)]P)), the half-inhibitory concentration (IC50) came to 130 nM.

For the compound `CC[C@H](C)[C@@H]1NC(=O)[C@H](CC(C)C)N(C)C(=O)C[C@@H](C)N(C)C(=O)[C@H](C(C)C)N(C)C(=O)C2(CC2)NC(=O)[C@@H]2CCCN2C(=O)[C@H](CCc2ccc(C(F)(F)F)c(Cl)c2)NC(=O)CN(C)C(=O)[C@H](CC2CCCCC2)N(C)C(=O)CN(C)C(=O)CN(C)C1=O` [Compound 268] (cyclo([Ac3c][NMeV][NMedβ3hAla][NMeL]I[Sar][Sar][NMeCha][Sar][hPhe(3-Cl-4-CF3)]P)), the IC50 turned out to be 18 nM.

Take `CC[C@H](C)[C@@H]1NC(=O)[C@H](CC(C)C)N(C)C(=O)C[C@@H](C)N(C)C(=O)[C@H](C2CCCC2)N(C)C(=O)C2(CCCC2)NC(=O)[C@@H]2CC(F)(F)CN2C(=O)[C@H](CCc2cc(F)c(C(F)(F)F)c(F)c2)NC(=O)CN(C)C(=O)[C@H](Cc2ccc(C(F)(F)F)cc2)N(C)C(=O)CN(C)C(=O)CN(C)C1=O` [Compound 269] (cyclo([Ac5c][NMeGly(cPent)][NMedβ3hAla][NMeL]I[Sar][Sar][NMePhe(4-CF3)][Sar][hPhe(3,5-F2-4-CF3)][Pro(4,4-F2)])): the IC50 was 3.4 nM.

Turning to `CC[C@H](C)[C@@H]1NC(=O)[C@H](CC(C)C)N(C)C(=O)C[C@@H](C)NC(=O)[C@H](C(C)C)N(C)C(=O)[C@@](C)(CC)NC(=O)[C@@H]2CCCN2C(=O)[C@H](CCc2ccc(C(F)(F)F)c(Cl)c2)NC(=O)CN(C)C(=O)[C@H](CC2CCCCC2)N(C)C(=O)CN(C)C(=O)CN(C)C1=O` [Compound 275] (cyclo(I[Sar][Sar][NMeCha][Sar][hPhe(3-Cl-4-CF3)]P[dIva][NMeV][d(β3hA)][NMeL])), the IC50 turned out to be 46 nM.
